Bridge positions count the residues as written; N and C are the ends. Square brackets hold non-standard residues; d marks the D form. Ends that are not written are not given here. Peptide text beside a SMILES is read from it. * marks the point of attachment. Phe(3,4-Cl2) = N[C@@H](Cc1ccc(Cl)c(Cl)c1)C(=O)O; Phe(3-Me) = Cc1cccc(C[C@H](N)C(=O)O)c1; Cit = NC(=O)NCCC[C@H](N)C(=O)O; Heptanoyl = CCCCCCC(=O)*; Pentanoyl = CCCCC(=O)*
Columns and labels:
[1] = biological target: neutral endopeptidase (NEP) (Homo sapiens, UniProt P08473); assay: in vitro; settings: human, pH 7
Protocol: To determine the effects of amino acid substitutions, amino acid extensions, backbone modifications, side chain modifications and PEGylation on the susceptibility of CNP variants to neutral endopeptidase (NEP) cleavage, peptide cleavage assays were carried out using an in vitro assay that monitored disappearance of the non-cleaved CNP variant.
Recombinant human NEP (1 ug/mL final concentration) was added to 100 uM CNP variant diluted in 0.1 M Tris, pH 7. The reaction mixture was incubated at 37° C. for various periods of time, and the reaction was quenched with EDTA (10 mM final) followed by heat denaturation. The reaction mixture was reduced and then the reaction products were analyzed using HPLC and mass spectroscopy. The half-life of the CNP variant was calculated based on the disappearance of intact CNP variant over time.

NPR-B = biological target: T1, NPR-B (Mus musculus, UniProt Q6VVW5); assay: Stimulation of cGMP production in NIH3T3 cells; assay type: cell-based, Murine; settings: NIH3T3 cells, normalized to cell number and cGMP production with 1 uM wtCNP22; for cGMP response relative to 1 uM CNP22 (%) at 0.01 µM: 10 nM natriuretic peptide, read-out: cGMP Response rel. to 1 uM CNP22, 10 nM; for cGMP response relative to 1 uM CNP22 (%) at 1 µM: 1 uM natriuretic peptide, read-out: cGMP Response rel. to 1 uM CNP22, 1 uM
T1 construct: Murine NIH3T3 cells express endogenously the CNP signaling receptor, NPR-B; endogenous in cells; host or cells: NIH3T3 (murine fibroblasts)
T1 sequence (Q6VVW5 17-1047): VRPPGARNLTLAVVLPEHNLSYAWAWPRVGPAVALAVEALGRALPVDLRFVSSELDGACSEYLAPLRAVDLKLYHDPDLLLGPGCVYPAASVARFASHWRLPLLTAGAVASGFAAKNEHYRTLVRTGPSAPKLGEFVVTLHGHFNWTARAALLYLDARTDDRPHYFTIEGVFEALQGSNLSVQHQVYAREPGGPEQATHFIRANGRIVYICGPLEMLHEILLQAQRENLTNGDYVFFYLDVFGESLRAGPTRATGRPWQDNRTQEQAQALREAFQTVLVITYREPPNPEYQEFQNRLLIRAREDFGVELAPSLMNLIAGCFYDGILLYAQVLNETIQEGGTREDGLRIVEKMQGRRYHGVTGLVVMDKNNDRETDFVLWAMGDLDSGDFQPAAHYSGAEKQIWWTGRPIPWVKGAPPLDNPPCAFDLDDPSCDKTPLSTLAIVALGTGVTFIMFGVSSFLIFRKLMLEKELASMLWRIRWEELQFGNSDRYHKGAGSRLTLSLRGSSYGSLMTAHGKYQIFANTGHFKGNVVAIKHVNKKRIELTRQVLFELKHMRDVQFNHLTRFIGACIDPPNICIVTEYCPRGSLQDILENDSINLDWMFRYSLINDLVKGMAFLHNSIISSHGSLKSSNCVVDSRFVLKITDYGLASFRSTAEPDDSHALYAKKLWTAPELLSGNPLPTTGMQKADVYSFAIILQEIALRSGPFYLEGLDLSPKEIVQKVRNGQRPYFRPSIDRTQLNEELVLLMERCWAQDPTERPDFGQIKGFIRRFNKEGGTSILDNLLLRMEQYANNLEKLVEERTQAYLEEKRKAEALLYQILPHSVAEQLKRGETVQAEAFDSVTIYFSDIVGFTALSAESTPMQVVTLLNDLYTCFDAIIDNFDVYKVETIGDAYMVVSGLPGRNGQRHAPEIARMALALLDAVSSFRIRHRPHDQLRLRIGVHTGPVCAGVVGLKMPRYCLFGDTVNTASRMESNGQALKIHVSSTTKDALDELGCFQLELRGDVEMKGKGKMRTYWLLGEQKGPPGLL

[2] = recombinant human neutral endopeptidase (NEP)

neutral endopeptidase (NEP), sequence (P08473 whole entry): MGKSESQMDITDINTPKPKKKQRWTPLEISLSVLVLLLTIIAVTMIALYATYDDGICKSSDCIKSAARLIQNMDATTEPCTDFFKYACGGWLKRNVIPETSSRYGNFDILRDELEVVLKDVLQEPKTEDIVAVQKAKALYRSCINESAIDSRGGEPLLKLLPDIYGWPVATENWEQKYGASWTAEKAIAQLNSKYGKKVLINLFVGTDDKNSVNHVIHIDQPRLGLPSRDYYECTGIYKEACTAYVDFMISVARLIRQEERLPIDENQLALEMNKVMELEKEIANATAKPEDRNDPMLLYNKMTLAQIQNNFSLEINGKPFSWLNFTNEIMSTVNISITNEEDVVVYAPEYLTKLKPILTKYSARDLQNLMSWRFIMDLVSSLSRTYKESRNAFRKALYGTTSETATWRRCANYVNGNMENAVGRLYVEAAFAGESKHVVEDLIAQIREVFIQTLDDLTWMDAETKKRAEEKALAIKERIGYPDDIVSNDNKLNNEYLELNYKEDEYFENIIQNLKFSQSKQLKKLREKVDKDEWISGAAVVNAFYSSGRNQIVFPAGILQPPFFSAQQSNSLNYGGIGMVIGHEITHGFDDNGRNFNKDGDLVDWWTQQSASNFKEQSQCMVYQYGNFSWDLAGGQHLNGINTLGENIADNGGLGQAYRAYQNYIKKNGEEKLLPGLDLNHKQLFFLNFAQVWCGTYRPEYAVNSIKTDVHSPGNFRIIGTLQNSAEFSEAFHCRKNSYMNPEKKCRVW

cGMP response relative to 1 uM CNP22 (%) at 0.01 µM (NPR-B) [%]	cGMP response relative to 1 uM CNP22 (%) at 1 µM (NPR-B) [%]	half-life at 100 uM [1, 2] [h]	Compound	half-life at 100 uM [1] [h]
61	101	–	DLRVDTKSRAAWARLLQEHPNARKYKGANKKGLSKGCFGLKLDRIGSMSGLGC (disulfide 37-53) [BM]	> 2.67
–	–	1.13	CC[C@H](C)[C@@H]1NC(=O)[C@H](CCCNC(=N)N)NC(=O)[C@H](CC(=O)O)NC(=O)[C@H](CC(C)C)NC(=O)[C@H](CCCCN)NC(=O)[C@H](CC(C)C)NC(=O)CNC(=O)[C@H](Cc2ccc(Cl)c(Cl)c2)NC(=O)[C@@H](NC(=O)CNC(=O)CNC(=O)[C@H](CO)NC(=O)[C@H](CC(C)C)NC(=O)CN)CSSC[C@@H](C(=O)O)NC(=O)CNC(=O)[C@H](CC(C)C)NC(=O)CNC(=O)[C@H](CO)NC(=O)[C@H](CCSC)NC(=O)[C@H](CO)NC(=O)CNC1=O [V] (H-GLSGGC[Phe(3,4-Cl2)]GLKLDRIGSMSGLGC-OH; disulfide 6-22)	–
–	–	1.13	CC[C@H](C)[C@@H]1NC(=O)[C@H](CCCNC(=N)N)NC(=O)[C@H](CC(=O)O)NC(=O)[C@H](CC(C)C)NC(=O)[C@H](CCCCN)NC(=O)[C@H](CC(C)C)NC(=O)CNC(=O)[C@H](Cc2cccc(C)c2)NC(=O)[C@@H](NC(=O)CNC(=O)CNC(=O)[C@H](CO)NC(=O)[C@H](CC(C)C)NC(=O)CN)CSSC[C@@H](C(=O)O)NC(=O)CNC(=O)[C@H](CC(C)C)NC(=O)CNC(=O)[C@H](CO)NC(=O)[C@H](CCSC)NC(=O)[C@H](CO)NC(=O)CNC1=O [X] (H-GLSGGC[Phe(3-Me)]GLKLDRIGSMSGLGC-OH; disulfide 6-22)	–
6	33	–	CC[C@H](C)[C@@H]1NC(=O)[C@H](CCCNC(=N)N)NC(=O)[C@H](CC(=O)O)NC(=O)[C@H](CC(C)C)NC(=O)[C@H](CCCNC(N)=O)NC(=O)[C@H](CC(C)C)NC(=O)CNC(=O)[C@H](Cc2ccccc2)NC(=O)[C@@H](NC(=O)CNC(=O)[C@H](CCCNC(=N)N)NC(=O)[C@H](CO)NC(=O)[C@H](CC(C)C)NC(=O)CN)CSSC[C@@H](C(=O)O)NC(=O)CNC(=O)[C@H](CC(C)C)NC(=O)CNC(=O)[C@H](CO)NC(=O)[C@H](CCSC)NC(=O)[C@H](CO)NC(=O)CNC1=O [BF] (H-GLSRGCFGL[Cit]LDRIGSMSGLGC-OH; disulfide 6-22 (inferred); N-terminus and C-terminus assumed)	–
2	18	–	CC[C@H](C)[C@@H]1NC(=O)[C@H](CCCNC(=N)N)NC(=O)[C@H](CC(=O)O)NC(=O)[C@H](CC(C)C)NC(=O)[C@H](CCCCN)NC(=O)[C@H](CC(C)C)NC(=O)CNC(=O)[C@H](Cc2ccc(O)cc2)NC(=O)[C@@H](NC(=O)CNC(=O)[C@H](CCCNC(=N)N)NC(=O)[C@H](CO)NC(=O)[C@H](CC(C)C)NC(=O)CN)CSSC[C@@H](C(=O)O)NC(=O)CNC(=O)[C@H](CC(C)C)NC(=O)CNC(=O)[C@H](CO)NC(=O)[C@H](CCSC)NC(=O)[C@H](CO)NC(=O)CNC1=O [Z] (H-GLSRGCYGLKLDRIGSMSGLGC-OH; disulfide 6-22 (inferred); N-terminus and C-terminus assumed)	–
12	115	–	CC[C@H](C)[C@@H]1NC(=O)[C@H](CCCNC(=N)N)NC(=O)[C@H](CC(=O)O)NC(=O)[C@H](CC(C)C)NC(=O)[C@H](CCCCN)NC(=O)[C@H](CC(C)C)NC(=O)CNC(=O)[C@H](Cc2ccccc2)NC(=O)[C@@H](NC(=O)CNC(=O)[C@H](CCCNC(=N)N)NC(=O)[C@H](CO)NC(=O)[C@H](CC(C)C)NC(=O)CNC(=O)[C@H](CCC(N)=O)NC(=O)[C@H](CCC(N)=O)NC(=O)[C@H](CC(N)=O)NC(=O)[C@H](C)NC(=O)CNC(=O)[C@H](CO)NC(=O)[C@H](CCC(N)=O)NC(=O)[C@@H](NC(=O)CNC(=O)[C@H](CO)NC(=O)[C@H](CO)NC(=O)[C@H](Cc2c[nH]cn2)NC(=O)[C@@H](NC(=O)[C@H](CCC(N)=O)NC(=O)CN)[C@@H](C)O)[C@@H](C)O)CSSC[C@@H](C(=O)O)NC(=O)CNC(=O)[C@H](CC(C)C)NC(=O)CNC(=O)[C@H](CO)NC(=O)[C@H](CCSC)NC(=O)[C@H](CO)NC(=O)CNC1=O [CN] (H-GQTHSSGTQSGANQQGLSRGCFGLKLDRIGSMSGLGC-OH; disulfide 21-37)	–

More lines, now with the values behind:

Compound	cGMP response relative to 1 uM CNP22 (%) at 0.01 µM (NPR-B) [%]	cGMP response relative to 1 uM CNP22 (%) at 1 µM (NPR-B) [%]	half-life at 100 uM [1, 2] [h]	half-life at 100 uM [1] [h]
CC[C@H](C)[C@@H]1NC(=O)[C@H](CCCNC(=N)N)NC(=O)[C@H](CC(=O)O)NC(=O)[C@H](CC(C)C)NC(=O)[C@H](CCCCN)NC(=O)[C@H](CC(C)C)NC(=O)CNC(=O)[C@H](Cc2ccccc2)NC(=O)[C@@H](NC(=O)CNC(=O)[C@H](CCCCN)NC(=O)[C@H](CO)NC(=O)[C@H](CC(C)C)NC(=O)CNC(=O)CCCC(=O)NCCOCCOCCOCCOCCC(=O)NC(COCCC(=O)NCCOCCOCCOCCOCCOCCOCCOCCOCCOCCOCCOCCOC)(COCCC(=O)NCCOCCOCCOCCOCCOCCOCCOCCOCCOCCOCCOCCOC)COCCC(=O)NCCOCCOCCOCCOCCOCCOCCOCCOCCOCCOCCOCCOC)CSSC[C@@H](C(=O)O)NC(=O)CNC(=O)[C@H](CC(C)C)NC(=O)CNC(=O)[C@H](CO)NC(=O)[C@H](CCSC)NC(=O)[C@H](CO)NC(=O)CNC1=O [PEO4-(PEO12)3 (branched)-CNP22]	17 ± 1	52 ± 6	–	> 2.67
CCCCCCC(=O)N[C@@H](CCC(=O)O)C(=O)N[C@@H](CC(C)C)C(=O)N[C@@H](CO)C(=O)N[C@@H](CCC(=O)O)C(=O)NCC(=O)N[C@H]1CSSC[C@@H](C(=O)O)NC(=O)CNC(=O)[C@H](CC(C)C)NC(=O)CNC(=O)[C@H](CO)NC(=O)[C@H](CCSC)NC(=O)[C@H](CO)NC(=O)CNC(=O)[C@H]([C@@H](C)CC)NC(=O)[C@H](CCCNC(=N)N)NC(=O)[C@H](CC(=O)O)NC(=O)[C@H](CC(C)C)NC(=O)[C@H](CCCCN)NC(=O)[C@H](CC(C)C)NC(=O)CNC(=O)[C@H](Cc2ccccc2)NC1=O [AW] (Heptanoyl-ELSEGCFGLKLDRIGSMSGLGC-OH; disulfide 6-22; C-terminus assumed)	–	–	–	< 0.333
CCCCC(=O)N[C@@H](CCC(=O)O)C(=O)N[C@@H](CC(C)C)C(=O)N[C@@H](CO)C(=O)N[C@@H](CCC(=O)O)C(=O)NCC(=O)N[C@H]1CSSC[C@@H](C(=O)O)NC(=O)CNC(=O)[C@H](CC(C)C)NC(=O)CNC(=O)[C@H](CO)NC(=O)[C@H](CCSC)NC(=O)[C@H](CO)NC(=O)CNC(=O)[C@H]([C@@H](C)CC)NC(=O)[C@H](CCCNC(=N)N)NC(=O)[C@H](CC(=O)O)NC(=O)[C@H](CC(C)C)NC(=O)[C@H](CCCCN)NC(=O)[C@H](CC(C)C)NC(=O)CNC(=O)[C@H](Cc2ccccc2)NC1=O [AV] (Pentanoyl-ELSEGCFGLKLDRIGSMSGLGC-OH; disulfide 6-22 (inferred); C-terminus assumed)	–	–	2	–
CC[C@H](C)[C@@H]1NC(=O)[C@H](CCCNC(=N)N)NC(=O)[C@H](CC(=O)O)NC(=O)[C@H](CC(C)C)NC(=O)[C@H](CCCCN)NC(=O)[C@H](CC(C)C)N(C)C(=O)CNC(=O)[C@H](Cc2ccccc2)NC[C@@H](NC(=O)CNC(=O)[C@H](CCCCN)NC(=O)[C@H](CO)NC(=O)[C@H](CC(C)C)NC(=O)CN)CSSC[C@@H](C(=O)O)NC(=O)CNC(=O)[C@H](CC(C)C)N(C)C(=O)CNC(=O)[C@H](CO)NC(=O)[C@H](CCSC)NC(=O)[C@H](CO)NC(=O)CNC1=O [J]	–	–	–	0.833
CC[C@H](C)[C@@H]1NC(=O)[C@H](CCCNC(=N)N)NC(=O)[C@H](CC(=O)O)NC(=O)[C@H](CC(C)C)NC(=O)[C@H](CCCCN)NC(=O)[C@H](CC(C)C)NC(=O)[C@H](CO)NC(=O)[C@H](Cc2ccccc2)NC(=O)[C@@H](NC(=O)CNC(=O)[C@H](CCCNC(=N)N)NC(=O)[C@H](CO)NC(=O)[C@H](CC(C)C)NC(=O)CN)CSSC[C@@H](C(=O)O)NC(=O)CNC(=O)[C@H](CC(C)C)NC(=O)CNC(=O)[C@H](CO)NC(=O)[C@H](CCSC)NC(=O)[C@H](CO)NC(=O)CNC1=O [AB] (H-GLSRGCFSLKLDRIGSMSGLGC-OH; disulfide 6-22 (inferred); N-terminus and C-terminus assumed)	26 ± 26	86 ± 17	–	–

From patent US8377884B2, “Variants of C-type natriuretic peptides” (Biomarin Pharmaceutical Inc., priority 2007, dated 2013)
